Tests used:
[1] = (§1) The drug is tested on Z-028 corresponding to mouse gut metagenome with ENA study accession number: PRJEB37062 and ENA sample accession number: ERS12561827 for biotransformation under anaerobic condition. The drug concentrations were measured over 9 timepoints collected between 0 and 24 hours of incubation by liquid-chromatography-coupled mass spectrometry (LC–MS); conditions: 2 µM
[2] = as §1, with “Z-022” for “Z-028”, “ERS12561821” for “ERS12561827”; conditions: 2 µM
[3] = as §1, with “Z-018” for “Z-028”, “pig” for “mouse”, “ERS12561817” for “ERS12561827”; conditions: 2 µM
[4] = as §1, with “Z-011” for “Z-028”, “ERS12561811” for “ERS12561827”; conditions: 2 µM
[5] = as §1, with “Z-007” for “Z-028”, “rat” for “mouse”, “ERS12561807” for “ERS12561827”; conditions: 2 µM
[6] = as §1, with “Z-004” for “Z-028”, “to” for “to mouse gut”, “ERS12561804” for “ERS12561827”; conditions: 2 µM
[7] = as §1, with “Z-003” for “Z-028”, “pig” for “mouse”, “ERS12561803” for “ERS12561827”; conditions: 2 µM
[8] = as §1, with “WLS-220” for “Z-028”, “human” for “mouse”, “ERS12561769” for “ERS12561827”; conditions: 2 µM
[9] = as §1, with “WLS-170” for “Z-028”, “human” for “mouse”, “ERS12561762” for “ERS12561827”; conditions: 2 µM
[10] = as §1, with “WLS-086” for “Z-028”, “human” for “mouse”, “ERS12561752” for “ERS12561827”; conditions: 2 µM
[11] = as §1, with “WLS-069” for “Z-028”, “human” for “mouse”, “ERS12561748” for “ERS12561827”; conditions: 2 µM
[12] = as §1, with “WLS-027” for “Z-028”, “human” for “mouse”, “ERS12561744” for “ERS12561827”; conditions: 2 µM
[13] = human gut metagenome, 24 h, 2 µM
[14] = human gut metagenome, 24 h, 2 µM; remark: listed apart in the source
[15] = human gut metagenome, 24 h, 2 µM; remark: listed apart in the source
[16] = human gut metagenome, 24 h, 2 µM; remark: listed apart in the source
[17] = human gut metagenome, 24 h, 2 µM; remark: listed apart in the source
[18] = human gut metagenome, 24 h, 2 µM; remark: listed apart in the source
[19] = human gut metagenome, 24 h, 2 µM; remark: listed apart in the source
[20] = human gut metagenome, 24 h, 2 µM; remark: listed apart in the source
Also: call rule not given here.

Row | Structure (SMILES) | Bacterial Biotransformation [1] | Bacterial Biotransformation [2] | Bacterial Biotransformation [3] | Bacterial Biotransformation [4] | Bacterial Biotransformation [5] | Bacterial Biotransformation [6] | Bacterial Biotransformation [7] | Bacterial Biotransformation [8] | Bacterial Biotransformation [9] | Bacterial Biotransformation [10] | Bacterial Biotransformation [11] | Bacterial Biotransformation [12] | Bacterial Biotransformation [13] | Bacterial Biotransformation [14] | Bacterial Biotransformation [15] | Bacterial Biotransformation [16] | Bacterial Biotransformation [17] | Bacterial Biotransformation [18] | Bacterial Biotransformation [19] | Bacterial Biotransformation [20]
1 | CO[C@]12C[C@@H](COC(=O)c3cncc(Br)c3)CN(C)[C@@H]1Cc1cn(C)c3cccc2c13 [NICERGOLINE] | Compound metabolized | Compound metabolized | Compound metabolized | Compound metabolized | Compound NOT metabolized | Compound metabolized | Compound metabolized | Compound NOT metabolized | Compound NOT metabolized | Compound metabolized | Compound NOT metabolized | Compound metabolized | Compound NOT metabolized | Compound NOT metabolized | Compound NOT metabolized | Compound NOT metabolized | Compound NOT metabolized | Compound metabolized | Compound NOT metabolized | Compound metabolized
2 | COc1ccc2c(c1OC)C(=O)O[C@@H]2[C@H]1c2c(cc3c(c2OC)OCO3)CCN1C [NOSCAPINE] | Compound NOT metabolized | Compound metabolized | Compound metabolized | Compound metabolized | Compound NOT metabolized | Compound NOT metabolized | Compound metabolized | Compound metabolized | Compound metabolized | Compound metabolized | Compound metabolized | Compound NOT metabolized | Compound metabolized | Compound NOT metabolized | Compound NOT metabolized | Compound metabolized | Compound NOT metabolized | Compound metabolized | Compound metabolized | Compound NOT metabolized
3 | CCCc1nc(C(C)(C)O)c(C(=O)OCc2oc(=O)oc2C)n1Cc1ccc(-c2ccccc2-c2nnn[nH]2)cc1 [OLMESARTAN MEDOXOMIL] | Compound NOT metabolized | Compound metabolized | Compound metabolized | Compound NOT metabolized | Compound metabolized | Compound metabolized | Compound metabolized | Compound metabolized | Compound metabolized | Compound metabolized | Compound metabolized | Compound metabolized | Compound NOT metabolized | Compound metabolized | Compound metabolized | Compound NOT metabolized | Compound metabolized | Compound metabolized | Compound NOT metabolized | Compound metabolized
4 | NC(=O)N1c2ccccc2CC(=O)c2ccccc21 [OXCARBAZEPINE] | Compound NOT metabolized | Compound metabolized | Compound metabolized | Compound NOT metabolized | Compound NOT metabolized | Compound metabolized | Compound metabolized | Compound NOT metabolized | Compound NOT metabolized | Compound NOT metabolized | Compound NOT metabolized | Compound NOT metabolized | Compound NOT metabolized | Compound NOT metabolized | Compound NOT metabolized | Compound NOT metabolized | Compound NOT metabolized | Compound NOT metabolized | Compound NOT metabolized | Compound NOT metabolized
5 | CCN(CC)CC#CCOC(=O)C(O)(c1ccccc1)C1CCCCC1.Cl (stereo not given) [OXYBUTYNIN CHLORIDE] | Compound NOT metabolized | Compound metabolized | Compound metabolized | Compound NOT metabolized | Compound NOT metabolized | Compound metabolized | Compound metabolized | Compound metabolized | Compound metabolized | Compound metabolized | Compound metabolized | Compound metabolized | Compound metabolized | Compound metabolized | Compound metabolized | Compound metabolized | Compound metabolized | Compound metabolized | Compound metabolized | Compound metabolized
6 | Fc1ccc([C@@H]2CCNC[C@H]2COc2ccc3c(c2)OCO3)cc1 [PAROXETINE] | Compound NOT metabolized | Compound metabolized | Compound NOT metabolized | Compound NOT metabolized | Compound NOT metabolized | Compound NOT metabolized | Compound metabolized | Compound metabolized | Compound metabolized | Compound metabolized | Compound metabolized | Compound metabolized | Compound NOT metabolized | Compound NOT metabolized | Compound NOT metabolized | Compound metabolized | Compound NOT metabolized | Compound metabolized | Compound NOT metabolized | Compound metabolized
7 | O=c1[nH]c2ccccc2n1C1CCN(CCCC(c2ccc(F)cc2)c2ccc(F)cc2)CC1 [PIMOZIDE] | Compound NOT metabolized | Compound NOT metabolized | Compound metabolized | Compound metabolized | Compound metabolized | Compound NOT metabolized | Compound metabolized | Compound metabolized | Compound metabolized | Compound metabolized | Compound metabolized | Compound metabolized | Compound metabolized | Compound metabolized | Compound metabolized | Compound metabolized | Compound NOT metabolized | Compound metabolized | Compound NOT metabolized | Compound metabolized
8 | CS(=O)(=O)O.OC(CCN1CCCCC1)(c1ccccc1)c1ccccc1 [PRIDINOL METHANESULFONATE] | Compound NOT metabolized | Compound NOT metabolized | Compound NOT metabolized | Compound NOT metabolized | Compound NOT metabolized | Compound NOT metabolized | Compound metabolized | Compound metabolized | Compound metabolized | Compound metabolized | Compound NOT metabolized | Compound NOT metabolized | Compound NOT metabolized | Compound NOT metabolized | Compound NOT metabolized | Compound metabolized | Compound NOT metabolized | Compound metabolized | Compound NOT metabolized | Compound metabolized

Reference: ChEMBL document CHEMBL5724914, “Linking interpersonal differences in gut microbiota composition and drug biotransformation activity” (2024)
